From ChEMBL document CHEMBL3217539, “Design, synthesis and biological evaluation of new molecules inhibiting epidermal growth factor receptor threonine790 methionine790 mutant” (Medchemcomm, 2012)
Active and inactive are the calls of the source. No cut-off for these calls is given here.

How the values were obtained:
[1] = target: Epidermal growth factor receptor (Homo sapiens, UniProt P00533, L861Q); assay: Inhibition of EGFR kinase L861Q mutant (unknown origin) after 1.5 hrs by FRET-based Z'-Lyte assay; type: protein assay
Chain of Epidermal growth factor receptor (Homo sapiens, UniProt P00533, L861Q) (P00533 25-1210 L861Q limits assumed): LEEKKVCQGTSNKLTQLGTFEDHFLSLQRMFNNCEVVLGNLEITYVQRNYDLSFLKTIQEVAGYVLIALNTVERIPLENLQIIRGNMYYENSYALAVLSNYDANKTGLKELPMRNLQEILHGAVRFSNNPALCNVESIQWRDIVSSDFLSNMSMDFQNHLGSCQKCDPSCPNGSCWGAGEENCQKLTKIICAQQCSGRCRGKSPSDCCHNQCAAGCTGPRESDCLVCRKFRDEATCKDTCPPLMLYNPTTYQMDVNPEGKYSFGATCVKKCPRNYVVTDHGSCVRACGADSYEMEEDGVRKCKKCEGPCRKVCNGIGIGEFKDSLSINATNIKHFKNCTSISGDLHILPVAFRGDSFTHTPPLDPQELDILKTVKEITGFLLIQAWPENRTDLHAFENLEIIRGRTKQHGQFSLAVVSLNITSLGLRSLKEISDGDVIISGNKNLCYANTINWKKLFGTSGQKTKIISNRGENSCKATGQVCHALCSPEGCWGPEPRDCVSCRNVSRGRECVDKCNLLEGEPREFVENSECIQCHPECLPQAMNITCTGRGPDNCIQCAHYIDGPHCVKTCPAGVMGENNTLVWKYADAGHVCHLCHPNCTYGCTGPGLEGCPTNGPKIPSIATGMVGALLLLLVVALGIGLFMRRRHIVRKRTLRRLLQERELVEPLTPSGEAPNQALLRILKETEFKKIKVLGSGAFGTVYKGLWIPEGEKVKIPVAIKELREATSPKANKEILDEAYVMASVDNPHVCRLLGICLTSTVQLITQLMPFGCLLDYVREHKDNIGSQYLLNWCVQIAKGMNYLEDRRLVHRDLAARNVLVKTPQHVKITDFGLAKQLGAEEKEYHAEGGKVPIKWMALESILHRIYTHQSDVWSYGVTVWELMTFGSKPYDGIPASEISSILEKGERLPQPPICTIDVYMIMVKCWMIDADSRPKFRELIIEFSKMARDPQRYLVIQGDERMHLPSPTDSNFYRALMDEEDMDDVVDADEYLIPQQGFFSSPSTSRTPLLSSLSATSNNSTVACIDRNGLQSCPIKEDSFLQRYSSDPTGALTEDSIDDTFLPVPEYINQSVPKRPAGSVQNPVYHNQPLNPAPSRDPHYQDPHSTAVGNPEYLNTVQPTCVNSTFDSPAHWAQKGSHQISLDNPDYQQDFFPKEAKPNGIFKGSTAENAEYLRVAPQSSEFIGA

[2] = Cytotoxicity against human HL7702 cells expressing wild type EGFR after 72 hrs by MTS assay; type: ADME, cell-based; details: L02, 72 h
[3] = Cytotoxicity against human HCC827 cells expressing EGFR kinase E746 to A750 deletion mutant after 72 hrs by MTS assay; type: functional, cell-based; details: HCC827, 72 h
[4] = test system: Epidermal growth factor receptor (Homo sapiens), P00533 [L858R,T790M]; assay: Inhibition of EGFR kinase L858R/T790M double mutant phosphorylation in human H1975 cells after 24 hrs by Western blotting analysis; type: cell-based
Chain of Epidermal growth factor receptor (Homo sapiens), P00533 [L858R,T790M] (P00533 whole entry T790M/L858R, looked up): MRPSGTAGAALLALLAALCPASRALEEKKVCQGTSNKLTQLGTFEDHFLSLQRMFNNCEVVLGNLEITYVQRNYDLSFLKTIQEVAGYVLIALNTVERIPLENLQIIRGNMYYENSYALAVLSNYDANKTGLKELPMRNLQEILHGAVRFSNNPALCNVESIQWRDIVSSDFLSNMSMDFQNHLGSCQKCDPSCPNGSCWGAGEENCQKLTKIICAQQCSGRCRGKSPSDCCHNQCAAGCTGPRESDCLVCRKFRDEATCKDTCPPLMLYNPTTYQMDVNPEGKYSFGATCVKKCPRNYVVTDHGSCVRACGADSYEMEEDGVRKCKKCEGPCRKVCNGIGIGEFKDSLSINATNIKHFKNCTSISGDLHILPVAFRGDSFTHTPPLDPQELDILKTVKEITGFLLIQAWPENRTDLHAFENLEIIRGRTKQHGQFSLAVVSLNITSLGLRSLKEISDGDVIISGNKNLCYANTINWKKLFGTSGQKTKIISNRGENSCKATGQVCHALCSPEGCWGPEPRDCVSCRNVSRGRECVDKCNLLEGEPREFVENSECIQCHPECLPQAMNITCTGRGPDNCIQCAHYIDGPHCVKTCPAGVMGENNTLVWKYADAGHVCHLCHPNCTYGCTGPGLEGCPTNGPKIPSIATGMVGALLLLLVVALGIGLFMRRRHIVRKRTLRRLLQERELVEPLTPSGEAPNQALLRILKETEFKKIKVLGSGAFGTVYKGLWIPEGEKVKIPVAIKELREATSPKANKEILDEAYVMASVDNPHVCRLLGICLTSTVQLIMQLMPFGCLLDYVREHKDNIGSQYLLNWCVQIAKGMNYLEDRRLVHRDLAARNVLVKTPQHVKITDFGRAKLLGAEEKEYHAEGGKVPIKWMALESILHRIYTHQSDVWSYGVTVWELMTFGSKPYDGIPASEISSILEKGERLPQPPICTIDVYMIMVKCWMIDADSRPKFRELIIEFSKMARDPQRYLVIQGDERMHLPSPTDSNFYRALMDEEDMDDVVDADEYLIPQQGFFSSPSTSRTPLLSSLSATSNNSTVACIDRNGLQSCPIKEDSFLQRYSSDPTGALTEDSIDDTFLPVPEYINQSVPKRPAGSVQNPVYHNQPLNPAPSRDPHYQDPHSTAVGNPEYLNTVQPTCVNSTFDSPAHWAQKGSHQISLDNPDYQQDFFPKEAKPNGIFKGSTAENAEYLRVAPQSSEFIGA

[5] = target: Epidermal growth factor receptor (Homo sapiens, UniProt P00533); assay: Inhibition of wild type EGFR kinase (unknown origin) after 1.5 hrs by FRET-based Z'-Lyte assay
[6] = target: Epidermal growth factor receptor (Homo sapiens, UniProt P00533, T790M); assay: Inhibition of EGFR kinase T790M mutant (unknown origin) after 1.5 hrs by FRET-based Z'-Lyte assay; type: protein assay
[7] = Selectivity ratio of IC50 for human HL7702 cells expressing wild type EGFR to IC50 for human H1975 cells expressing EGFR kinase […]; type: ADME, cell-based; details: read-out: Ratio IC50
[8] = target: Epidermal growth factor receptor (Homo sapiens, UniProt P00533, L858R); assay: Inhibition of EGFR kinase L858R mutant (unknown origin) after 1.5 hrs by FRET-based Z'-Lyte assay; type: protein assay
Chain of Epidermal growth factor receptor (Homo sapiens, UniProt P00533, L858R) (P00533 25-1210 L858R limits assumed): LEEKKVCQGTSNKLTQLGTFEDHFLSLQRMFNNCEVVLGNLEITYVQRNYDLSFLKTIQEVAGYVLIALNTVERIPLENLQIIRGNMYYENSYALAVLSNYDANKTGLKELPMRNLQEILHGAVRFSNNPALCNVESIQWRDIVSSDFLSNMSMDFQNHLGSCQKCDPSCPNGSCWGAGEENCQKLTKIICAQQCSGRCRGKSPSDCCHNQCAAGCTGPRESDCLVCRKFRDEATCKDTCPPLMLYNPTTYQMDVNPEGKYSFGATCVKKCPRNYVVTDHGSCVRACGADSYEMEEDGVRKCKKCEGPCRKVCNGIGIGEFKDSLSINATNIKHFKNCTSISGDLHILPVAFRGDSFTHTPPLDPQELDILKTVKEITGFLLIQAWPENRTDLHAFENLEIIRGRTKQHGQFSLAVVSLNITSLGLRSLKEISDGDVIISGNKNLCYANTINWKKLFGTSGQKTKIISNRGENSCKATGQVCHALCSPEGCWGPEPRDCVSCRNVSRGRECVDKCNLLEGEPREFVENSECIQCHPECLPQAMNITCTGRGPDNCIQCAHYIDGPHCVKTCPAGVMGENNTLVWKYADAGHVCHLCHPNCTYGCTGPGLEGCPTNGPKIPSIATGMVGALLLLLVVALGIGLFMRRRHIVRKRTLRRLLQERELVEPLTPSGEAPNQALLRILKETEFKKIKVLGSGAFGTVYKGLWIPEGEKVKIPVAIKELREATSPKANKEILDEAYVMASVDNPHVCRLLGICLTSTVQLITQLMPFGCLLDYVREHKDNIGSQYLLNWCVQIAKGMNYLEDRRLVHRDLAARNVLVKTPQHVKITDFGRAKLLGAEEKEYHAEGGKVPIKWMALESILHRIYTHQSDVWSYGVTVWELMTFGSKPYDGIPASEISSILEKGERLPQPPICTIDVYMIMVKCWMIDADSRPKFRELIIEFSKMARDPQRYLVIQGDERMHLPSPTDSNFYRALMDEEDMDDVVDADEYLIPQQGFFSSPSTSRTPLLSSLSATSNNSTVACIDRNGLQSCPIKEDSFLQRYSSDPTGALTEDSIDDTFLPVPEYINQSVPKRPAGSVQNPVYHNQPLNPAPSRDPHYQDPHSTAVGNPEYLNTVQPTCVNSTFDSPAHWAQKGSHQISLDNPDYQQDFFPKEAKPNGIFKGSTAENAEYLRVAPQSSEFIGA

[9] = test system: Epidermal growth factor receptor (Homo sapiens), P00533 [L858R,T790M]; assay: Inhibition of EGFR kinase L858R/T790M double mutant phosphorylation in human H1975 cells at >= 50 nM after 24 hrs by Western blotting analysis; type: cell-based
[10] = target: Epidermal growth factor receptor (Homo sapiens, UniProt P00533, L858R/T790M); assay: Inhibition of EGFR kinase L858R/T790M double mutant (unknown origin) after 1.5 hrs by FRET-based Z'-Lyte assay; type: protein assay
Chain of Epidermal growth factor receptor (Homo sapiens, UniProt P00533, L858R/T790M) (P00533 25-1210 T790M/L858R limits assumed): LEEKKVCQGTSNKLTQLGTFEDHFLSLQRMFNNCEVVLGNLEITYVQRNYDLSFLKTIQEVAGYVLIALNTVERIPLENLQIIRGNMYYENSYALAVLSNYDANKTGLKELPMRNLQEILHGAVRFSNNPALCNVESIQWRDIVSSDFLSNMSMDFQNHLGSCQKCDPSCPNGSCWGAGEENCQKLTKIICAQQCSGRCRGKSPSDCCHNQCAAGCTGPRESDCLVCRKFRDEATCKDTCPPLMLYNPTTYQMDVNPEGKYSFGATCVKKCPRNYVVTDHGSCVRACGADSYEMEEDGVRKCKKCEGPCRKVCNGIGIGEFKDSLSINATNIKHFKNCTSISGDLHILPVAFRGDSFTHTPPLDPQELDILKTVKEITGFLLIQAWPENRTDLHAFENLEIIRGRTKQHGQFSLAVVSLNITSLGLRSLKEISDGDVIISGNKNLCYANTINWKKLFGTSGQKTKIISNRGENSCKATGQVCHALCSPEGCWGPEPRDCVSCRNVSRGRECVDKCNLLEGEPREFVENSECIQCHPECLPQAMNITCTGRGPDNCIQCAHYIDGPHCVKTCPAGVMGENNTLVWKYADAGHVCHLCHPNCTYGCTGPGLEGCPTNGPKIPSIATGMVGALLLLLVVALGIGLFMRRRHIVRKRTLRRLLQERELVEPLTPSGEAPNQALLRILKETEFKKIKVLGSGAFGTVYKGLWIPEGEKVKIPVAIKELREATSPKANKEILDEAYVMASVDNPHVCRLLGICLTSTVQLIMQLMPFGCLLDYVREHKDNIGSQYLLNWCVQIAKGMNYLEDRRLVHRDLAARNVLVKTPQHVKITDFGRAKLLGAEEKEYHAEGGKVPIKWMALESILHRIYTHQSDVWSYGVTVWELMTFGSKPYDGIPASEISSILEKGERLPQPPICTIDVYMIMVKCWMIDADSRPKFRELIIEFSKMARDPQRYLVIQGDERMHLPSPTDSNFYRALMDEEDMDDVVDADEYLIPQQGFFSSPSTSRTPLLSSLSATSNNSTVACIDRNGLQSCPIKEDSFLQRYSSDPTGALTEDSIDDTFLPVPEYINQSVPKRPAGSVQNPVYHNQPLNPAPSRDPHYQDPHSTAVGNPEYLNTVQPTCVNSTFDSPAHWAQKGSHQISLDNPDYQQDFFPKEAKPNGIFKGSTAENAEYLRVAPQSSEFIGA

NCI-H1975 = assay: cells; type: functional, cell-based; details: Homo sapiens, NCI-H1975, 72 h
[11] = Selectivity ratio of IC50 for human HL7702 cells expressing wild type EGFR to IC50 for human H1975 cells expressing EGFR kinase L858R/T790M double mutant; type: ADME, cell-based; details: read-out: Ratio IC50

SMILES | IC50 [1] | IC50 [2] | IC50 [3] | inhibition [4] | IC50 [5] | IC50 [6] | selectivity ratio [7] | IC50 [8] | inhibition [9] | IC50 [10] | IC50 (NCI-H1975) | selectivity ratio [11]
C=CC(=O)Nc1cccc(N2C(=O)C(Cc3ccc(F)cc3)N(C)C(=O)c3cnc(Nc4ccc(N5CCN(C)CC5)cc4OC)nc32)c1 (stereo not given) | 7.57 nM | 13.7 µM | 71 nM | Dose-dependent effect | 5.78 nM | 17.9 nM | 200 | 24.5 nM | Active | 14.1 nM | 69 nM | 200
C=CC(=O)Nc1cccc(Oc2nc(Nc3ccc(N4CCN(C)CC4)cc3OC)ncc2Cl)c1 |  | 9.15 µM | 24 nM |  |  |  |  |  |  |  | 87 nM | 
C=CC(=O)Nc1cccc(N2C(=O)C(Cc3ccc(Cl)cc3)N(C)C(=O)c3cnc(Nc4ccc(N5CCN(C)CC5)cc4OC)nc32)c1 (stereo not given) |  | 8.73 µM | 300 nM |  |  |  |  |  |  |  | 470 nM | 
C=CC(=O)Nc1cccc(N2C(=O)CN(Cc3ccccc3)C(=O)c3cnc(Nc4ccc(N5CCN(C)CC5)cc4OC)nc32)c1 | 8.4 nM | 17.5 µM | 87 nM |  | 6.26 nM | 84.2 nM |  | 9.12 nM |  | 32.8 nM | 2590 nM | 
C=CC(=O)Nc1cccc(N2C(=O)C(c3ccccc3)N(C)C(=O)c3cnc(Nc4ccc(N5CCN(C)CC5)cc4OC)nc32)c1 (stereo not given) | 77.1 nM | 14.3 µM | 3820 nM |  | 77.2 nM | 778 nM |  | 174 nM |  | > 1000 nM | 5900 nM | 
C=CC(=O)Nc1cccc(N2C(=O)C3CCCN3C(=O)c3cnc(Nc4ccc(N5CCN(C)CC5)cc4OC)nc32)c1 (stereo not given) | > 1000 nM | 16.1 µM | 6900 nM |  | > 1000 nM | > 1000 nM |  | > 1000 nM |  | > 1000 nM | 31400 nM | 
C=CC(=O)Nc1cccc(N2C(=O)C(C(C)CC)N(C)C(=O)c3cnc(Nc4ccc(N5CCN(C)CC5)cc4OC)nc32)c1 (stereo not given) | 7.25 nM | 15 µM | 600 nM |  | 10.2 nM | 86.8 nM |  | 13.2 nM |  | 87.5 nM | 1110 nM | 
C=CC(=O)Nc1cccc(N2C(=O)C(Cc3ccccc3)N(C)C(=O)c3cnc(Nc4ccc(N5CCN(C)CC5)cc4OC)nc32)c1 (stereo not given) | 5.3 nM | 25.6 µM | 24 nM | Dose-dependent effect | 4.68 nM | 16.5 nM | 200 | 8.33 nM | Active | 8.95 nM | 89 nM | 200
C=CC(=O)Nc1cccc(N2C(=O)C(C)N(C)C(=O)c3cnc(Nc4ccc(N5CCN(C)CC5)cc4OC)nc32)c1 (stereo not given) | 6.02 nM | 49.1 µM | 130 nM |  | 22.1 nM | 122 nM |  | 41.6 nM |  | 50.9 nM | 920 nM | 
C=CC(=O)Nc1cccc(N2C(=O)C(Cc3ccc(OC)cc3)N(C)C(=O)c3cnc(Nc4ccc(N5CCN(C)CC5)cc4OC)nc32)c1 (stereo not given) | 97.1 nM | 16.2 µM | 280 nM |  | 33.9 nM | 88.3 nM |  | 50 nM |  | 53.9 nM | 820 nM | 
C=CC(=O)Nc1cccc(N2C(=O)C3CCCCN3C(=O)c3cnc(Nc4ccc(N5CCN(C)CC5)cc4OC)nc32)c1 (stereo not given) | 2.74 nM | 23 µM | 68 nM |  | 2.45 nM | 115 nM |  | 4.3 nM |  | 40.7 nM | 990 nM | 
C=CC(=O)Nc1cccc(N2C(=O)CN(c3ccccc3)C(=O)c3cnc(Nc4ccc(N5CCN(C)CC5)cc4OC)nc32)c1 | 6.86 nM | 1.71 µM | 140 nM |  | 6.99 nM | 221 nM |  | 30.7 nM |  | 194 nM | 9190 nM | 
C=CC(=O)Nc1cccc(N2C(=O)C(C(C)C)N(C)C(=O)c3cnc(Nc4ccc(N5CCN(C)CC5)cc4OC)nc32)c1 (stereo not given) | 24.1 nM | 28.2 µM | 69 nM |  | 24.8 nM | 44 nM |  | 56.5 nM |  | 24.8 nM | 650 nM | 
C=CC(=O)Nc1cccc(N2C(=O)CN(C)C(=O)c3cnc(Nc4ccc(N5CCN(C)CC5)cc4OC)nc32)c1 | 22.3 nM | 44.5 µM | 1680 nM |  | 9.14 nM | 110 nM |  | 15.1 nM |  | 52.6 nM | 11700 nM | 
